This passage reports Ki and Ratio Ki results from ChEMBL document CHEMBL1817545, “Synthesis and molecular modeling of 1H-pyrrolopyrimidine-2,4-dione derivatives as ligands for the α1-adrenoceptors” (Bioorg Med Chem, 2011).

Test [1] has as its target T1, 5-hydroxytryptamine receptor 1A (Rattus norvegicus, UniProt P19327).
T1 sequence (P19327 whole entry): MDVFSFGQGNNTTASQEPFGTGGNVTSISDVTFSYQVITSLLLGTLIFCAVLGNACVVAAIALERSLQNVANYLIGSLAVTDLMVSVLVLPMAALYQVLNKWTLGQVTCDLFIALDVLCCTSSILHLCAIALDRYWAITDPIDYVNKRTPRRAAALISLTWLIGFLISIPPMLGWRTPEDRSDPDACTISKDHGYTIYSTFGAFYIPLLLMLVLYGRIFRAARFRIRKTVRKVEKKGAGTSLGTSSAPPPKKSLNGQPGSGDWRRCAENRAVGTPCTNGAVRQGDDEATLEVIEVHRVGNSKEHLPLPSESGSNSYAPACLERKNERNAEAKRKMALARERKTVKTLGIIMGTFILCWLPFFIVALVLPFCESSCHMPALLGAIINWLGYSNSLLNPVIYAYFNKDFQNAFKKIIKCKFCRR
The test is described as follows: Displacement of [3H]-8-OH-DPAT from 5HT1A in CRL:CD(SD)BR-COBS rat brain hippocampus after 30 mins by liquid scintillation spectrometry. Format: tissue-based.

For test [2], the target named is T2, Adrenergic receptor alpha-1 (Rattus norvegicus, UniProt P15823+P23944+P43140).
T2 sequence (P15823 whole entry): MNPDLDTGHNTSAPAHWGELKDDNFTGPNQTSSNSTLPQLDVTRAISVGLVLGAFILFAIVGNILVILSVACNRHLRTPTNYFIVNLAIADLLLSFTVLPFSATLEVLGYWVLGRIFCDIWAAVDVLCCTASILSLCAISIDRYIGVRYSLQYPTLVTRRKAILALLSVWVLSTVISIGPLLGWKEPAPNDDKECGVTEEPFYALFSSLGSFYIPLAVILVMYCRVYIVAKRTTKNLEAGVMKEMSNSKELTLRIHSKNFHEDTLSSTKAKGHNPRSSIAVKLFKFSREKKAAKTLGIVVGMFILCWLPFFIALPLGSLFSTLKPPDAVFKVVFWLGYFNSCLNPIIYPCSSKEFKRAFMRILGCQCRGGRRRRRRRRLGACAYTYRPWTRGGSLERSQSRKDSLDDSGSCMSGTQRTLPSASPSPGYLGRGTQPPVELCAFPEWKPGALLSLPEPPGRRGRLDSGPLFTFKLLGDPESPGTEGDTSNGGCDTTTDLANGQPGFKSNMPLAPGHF
T2 sequence (P23944 whole entry): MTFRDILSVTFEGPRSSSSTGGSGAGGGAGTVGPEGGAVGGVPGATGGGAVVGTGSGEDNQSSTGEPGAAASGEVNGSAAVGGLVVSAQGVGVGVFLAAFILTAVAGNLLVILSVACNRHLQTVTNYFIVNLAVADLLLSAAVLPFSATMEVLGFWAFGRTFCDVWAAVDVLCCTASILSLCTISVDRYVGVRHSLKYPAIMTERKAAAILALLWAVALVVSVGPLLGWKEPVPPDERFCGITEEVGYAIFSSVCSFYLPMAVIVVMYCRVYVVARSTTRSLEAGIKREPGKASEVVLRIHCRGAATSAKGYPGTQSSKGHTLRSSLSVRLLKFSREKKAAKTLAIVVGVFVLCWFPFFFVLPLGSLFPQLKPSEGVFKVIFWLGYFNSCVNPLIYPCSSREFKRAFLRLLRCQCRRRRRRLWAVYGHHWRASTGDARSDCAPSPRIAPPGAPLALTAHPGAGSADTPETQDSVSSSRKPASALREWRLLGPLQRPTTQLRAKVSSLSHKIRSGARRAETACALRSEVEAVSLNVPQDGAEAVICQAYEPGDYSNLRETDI
T2 sequence (P43140 whole entry): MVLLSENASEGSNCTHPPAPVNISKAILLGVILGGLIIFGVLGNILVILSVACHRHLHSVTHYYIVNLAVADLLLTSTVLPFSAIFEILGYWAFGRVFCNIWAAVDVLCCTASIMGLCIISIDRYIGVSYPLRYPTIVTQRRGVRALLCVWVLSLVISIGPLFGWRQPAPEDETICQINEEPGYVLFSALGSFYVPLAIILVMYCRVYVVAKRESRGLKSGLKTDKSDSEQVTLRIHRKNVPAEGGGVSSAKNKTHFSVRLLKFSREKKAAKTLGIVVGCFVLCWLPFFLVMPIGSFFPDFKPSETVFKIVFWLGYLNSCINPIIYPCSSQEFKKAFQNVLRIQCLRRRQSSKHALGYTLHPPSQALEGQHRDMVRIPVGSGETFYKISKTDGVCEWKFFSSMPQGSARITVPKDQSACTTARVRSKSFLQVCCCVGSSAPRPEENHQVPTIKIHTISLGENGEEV
The test is described as follows: Displacement of [3H]prazosin from alpha1-ARs in CRL:CD(SD)BR-COBS rat brain cortex after 30 mins by liquid scintillation spectrometry. (In general: Displacement assays read how much labelled ligand stays bound in the presence of the test substance.)

The species entered for the next test is Rattus norvegicus. The test is described as follows: Ratio of Ki for CRL:CD(SD)BR-COBS rat brain hippocampus 5HT1A to Ki for CRL:CD(SD)BR-COBS rat brain cortex alpha1-AR. Format: tissue-based.

Usually Ki stands for the equilibrium dissociation constant of an inhibitor or competing ligand from its target. A low value points to tighter binding. `CC(C)(C)c1cc2[nH]c(=O)n(CCN3CCN(c4ccccc4Cl)CC3)c(=O)c2[nH]1`: the Ki was 0.0651 µM in test [1] and 0.00139 µM in test [2]. For the same compound, the Ratio Ki in the test listed under Rattus norvegicus came to 46.9.

With `COc1ccccc1N1CCN(CCn2c(=O)[nH]c3cc(-c4ccc(Cl)cc4)[nH]c3c2=O)CC1`, the Ratio Ki in the test listed under Rattus norvegicus is > 1000.

In the case of `O=c1[nH]c2c(-c3ccccc3)c[nH]c2c(=O)n1CCN1CCN(c2ccccc2Cl)CC1`, the inhibition constant Ki in test [1] was 0.0431 µM; in test [2], 0.00114 µM. The Ratio Ki in the test filed under Rattus norvegicus was 37.8.

As to `O=c1[nH]c2[nH]c(-c3ccc(Oc4ccccc4)cc3)cc2c(=O)n1CCN1CCN(c2ccccc2Cl)CC1`, the Ki in test [1] was 4.72 µM; in test [2], 0.125 µM. For the same compound, in the test listed under Rattus norvegicus, the Ratio Ki stood at 37.8.

In the case of `O=c1[nH]c2cc(-c3ccco3)[nH]c2c(=O)n1CCN1CCN(c2ccccc2Cl)CC1`, the results for the Ki in test [1] and in test [2] were 0.22 µM and 0.01417 µM, respectively. For the same compound, the Ratio Ki in the test filed under Rattus norvegicus worked out at 15.5.

`O=c1[nH]c2[nH]c(-c3ccc(OCc4ccccc4)cc3)cc2c(=O)n1CCN1CCN(c2ccccc2Cl)CC1`: the Ki in test [1] was > 10 µM; in test [2], 0.07091 µM. Besides, the Ratio Ki in the test listed under Rattus norvegicus is > 141.

Regarding `COc1ccccc1N1CCN(CCn2c(=O)[nH]c3cc(C(C)(C)C)[nH]c3c2=O)CC1`, the values for the inhibitory constant (Ki) in test [1] and in test [2] were 0.0467 µM and 0.00169 µM, respectively. For the same compound, the Ratio Ki in the test filed under Rattus norvegicus was found to be 27.7.

As to `Cc1ccc(-c2c[nH]c3c(=O)n(CCN4CCN(c5ccccc5Cl)CC4)c(=O)[nH]c23)cc1`, the Ki in test [1] is > 10 µM; in test [2] it was 0.00496 µM. The Ratio Ki in the test listed under Rattus norvegicus is > 2000.

On to `COc1ccc(-c2cc3c(=O)n(CCN4CCN(c5ccccc5OC)CC4)c(=O)n(Cc4ccccc4OC)c3[nH]2)cc1`, for which the Ki is 0.184 µM in test [1] and 0.01586 µM in test [2]. In addition, the Ratio Ki in the test listed under Rattus norvegicus came to 11.6.

Regarding `O=c1[nH]c2cc(-c3ccc(Cl)cc3)[nH]c2c(=O)n1CCN1CCN(c2ccccc2Cl)CC1`, in the test filed under Rattus norvegicus, the Ratio Ki was > 800.

With `O=c1[nH]c2[nH]c(-c3ccccc3)c(-c3ccccc3)c2c(=O)n1CCN1CCN(c2ccccc2Cl)CC1`, the Ki in test [1] stood at 1.54 µM; in test [2] it was 0.0119 µM. Besides, the Ratio Ki in the test listed under Rattus norvegicus was determined as 129.

`COc1ccccc1N1CCN(CCn2c(=O)[nH]c3[nH]c(-c4ccccc4)c(-c4ccccc4)c3c2=O)CC1`: the inhibition constant Ki in test [1] is 0.466 µM; in test [2] it was 0.00482 µM. In the test filed under Rattus norvegicus, the Ratio Ki stood at 96.7.

Turning to `COc1ccc(-c2cc3c(=O)n(CCN4CCN(c5ccccc5Cl)CC4)c(=O)n(Cc4ccccc4OC)c3[nH]2)cc1`, the Ki in test [1] came to 4.67 µM; in test [2], 0.0892 µM. The Ratio Ki in the test filed under Rattus norvegicus is 52.3.

In the case of `O=c1[nH]c2[nH]c(-c3ccc(OCCOc4ccccc4)cc3)cc2c(=O)n1CCN1CCN(c2ccccc2Cl)CC1`, the Ki in test [1] was > 10 µM; in test [2] it was 0.126 µM. The Ratio Ki in the test listed under Rattus norvegicus is > 79.

Regarding `COc1ccccc1N1CCN(CCn2c(=O)[nH]c3[nH]c(-c4ccc(Cl)cc4)cc3c2=O)CC1`, the Ki in test [1] worked out at 0.401 µM; in test [2] it was 0.00408 µM. The Ratio Ki in the test listed under Rattus norvegicus was determined as 98.4.

Consider `COc1ccccc1N1CCN(CCn2c(=O)[nH]c3[nH]c(-c4ccc(OCCOc5ccccc5)cc4)cc3c2=O)CC1`, for which the figures for the Ki in test [1] and in test [2] were > 10 µM and 0.05363 µM, respectively. In addition, the Ratio Ki in the test listed under Rattus norvegicus is > 186.

For `O=c1c2cc(-c3ccccc3)[nH]c2n(Cc2ccccc2)c(=O)n1CCN1CCN(c2ccccc2Cl)CC1`, the Ki is 1.02 µM in test [1] and 0.03541 µM in test [2]. In addition, the Ratio Ki in the test listed under Rattus norvegicus is 28.8.

As to `COc1ccccc1N1CCN(CCn2c(=O)[nH]c3c(-c4ccccc4)c[nH]c3c2=O)CC1`, the values for the inhibition constant Ki in test [1] and in test [2] were 0.0134 µM and 0.00208 µM, respectively. Further, the Ratio Ki in the test listed under Rattus norvegicus stood at 6.44.

Regarding `COc1ccccc1N1CCN(CCn2c(=O)[nH]c3c(-c4ccc(Cl)cc4)c[nH]c3c2=O)CC1`, the Ki in test [1] was determined as 0.0326 µM; in test [2], 0.00336 µM. In the test listed under Rattus norvegicus, the Ratio Ki was determined as 9.7.

In the case of `O=c1[nH]c2[nH]c(-c3ccc(-c4ccccc4)cc3)cc2c(=O)n1CCN1CCN(c2ccccc2Cl)CC1`, the Ki is > 10 µM in test [1] and 0.183 µM in test [2]. Moreover, in the test filed under Rattus norvegicus, the Ratio Ki was > 54.6.

For `O=c1[nH]c2c(-c3ccc(Cl)cc3)c[nH]c2c(=O)n1CCN1CCN(c2ccccc2Cl)CC1`, the values for the inhibition constant Ki in test [1] and in test [2] were > 10 µM and 0.00271 µM, respectively. Moreover, the Ratio Ki in the test filed under Rattus norvegicus is > 3500.

Consider `COc1ccccc1N1CCN(CCn2c(=O)[nH]c3cc(-c4ccco4)[nH]c3c2=O)CC1`, for which the inhibition constant (Ki) was found to be 0.0289 µM in test [1] and 0.00338 µM in test [2]. Moreover, the Ratio Ki in the test filed under Rattus norvegicus came to 8.54.

Consider `O=c1[nH]c2[nH]c(-c3ccc(Cl)cc3)cc2c(=O)n1CCN1CCN(c2ccccc2Cl)CC1`, for which the values for the Ki in test [1] and in test [2] were 1.51 µM and 0.00264 µM, respectively. For the same compound, the Ratio Ki in the test listed under Rattus norvegicus is > 500.

In the case of `COc1ccccc1N1CCN(CCn2c(=O)[nH]c3[nH]c(-c4ccc(-c5ccccc5)cc4)cc3c2=O)CC1`, the inhibitory constant (Ki) amounted to 3.68 µM in test [1] and 0.0543 µM in test [2]. Further, the Ratio Ki in the test listed under Rattus norvegicus is 67.8.

With `COc1ccccc1N1CCN(CCn2c(=O)[nH]c3[nH]c(-c4ccc(OCc5ccccc5)cc4)cc3c2=O)CC1`, the Ki in test [1] amounted to 0.784 µM; in test [2], 0.01031 µM. For the same compound, the Ratio Ki in the test filed under Rattus norvegicus was determined as 76.

Take `COc1ccccc1N1CCN(CCn2c(=O)[nH]c3[nH]c(-c4ccc(Oc5ccccc5)cc4)cc3c2=O)CC1`: the Ki in test [1] is 0.0171 µM; in test [2] it was 0.04371 µM. In the test listed under Rattus norvegicus, the Ratio Ki was determined as 0.39.

In the case of `COc1ccccc1N1CCN(CCn2c(=O)c3cc(-c4ccccc4)[nH]c3n(Cc3ccccc3)c2=O)CC1`, the values for the Ki in test [1] and in test [2] were 0.198 µM and 0.0245 µM, respectively. Also, the Ratio Ki in the test listed under Rattus norvegicus was found to be 8.08.

For the compound `O=c1[nH]c2c(-c3ccccc3Cl)c[nH]c2c(=O)n1CCN1CCN(c2ccccc2Cl)CC1`, the Ki in test [1] stood at 0.0815 µM; in test [2], 0.00114 µM. The Ratio Ki in the test listed under Rattus norvegicus is 71.5.
